The source of these data is patent US20260256790A1, “DEBIO-0123 IN COMBINATION WITH TEMOZOLOMIDE AND RADIOTHERAPY FOR USE IN TREATING GLIOMA” (Debiopharm International S.A., priority 2023, published 2026).

The subject of one series is U87-MG-luc GBM cell line. In words: U87-MG-luc tumors implanted cerebrally in mice, monotherapy. The following applies: 30 mg/kg oral QD, 28 days, p=0.0023 on day 28. It counts as in vivo, athymic nude mice. On the procedure: Male athymic nude mice were injected A) subcutaneously (s.c.) or B) cerebrally (i.e.) with 1×10^5 U87-MG-luc cells in Matrigel. Animals implanted i.e. were imaged to monitor tumor establishment and growth throughout the study using an In Vivo Imaging System (IVIS) once weekly, detecting tumor bioluminescence (BLI) in photons. For animals implanted s.c., tumor growth was monitored twice weekly by caliper measurement and tumor volume calculated using the equation V=(L×W×W)/2, where V is tumor volume, L is tumor length (the longest tumor dimension) and W is tumor width (the longest tumor dimension perpendicular to L). Upon confirmation of tumor establishment, animals were randomly allocated into 3 (A, s.c.) or 2 (B, i.e.) treatment groups (n=8 animals per group) consisting of vehicle (0.5% methycellulose, 1% Tween 80 P.O. and saline I.V.) or Compound of formula (I) [CoF (I)] formulated as a suspension in 0.5% methycellulose and 1% Tween 80. The treatments were administered over a 28 day cycle and compound of formula (I) was administered orally at a dose of either 30 mg/kg (for both A and B) or 60 mg/kg (for A only), once daily (QD)). […] Mortality and observed clinical signs were recorded for individual animals in detail.

A further series concerns SF188 cells. The series is described as follows: Colony formation assay in SF188 cells. Type of series: cell-based. The following applies: up to 400 nM, 10 days post-treatment. The procedure: SF188 cells were transfected with ATRX siRNA (siATRX_1 or siATRX_2) either individually (A) or as a pool (B and C) or control siRNA (siCon) and ATRX deficiency assessed by determining relative ATRX protein levels by western blotting. Control and ATRX-deficient SF188 cells were then treated with compound of formula (I) at a range of concentrations between 0 and 1.5 uM (FIG. 7A) and at 400 nM (FIG. 7B) and drug sensitivities were assessed via an ATP-based cell viability assay or in colony formation assay.
For cell viability assessment, SF188 cells were seeded in 96-well culture plates at 100-500 cells in 100 μl of culture media per well. After overnight incubation, 100 μl of culture media containing compound of formula (I) was added to each well at the desired final concentration. After 72 h, cell viability was assessed by CellTiter-Glo 2.0 according to the manufacturer's instructions. Each condition was tested in triplicate or quadruplicate, and the average viability is presented as a percentage of vehicle-treated cells. For colony formation assessment (FIG. 7C), SF188 cells were seeded on a 6-well plate at 100 cells per well in 1 ml of culture media. […] The number of colonies in each well was counted manually. […] Colony-forming efficiency was determined by normalizing the colony numbers to the vehicle-treated cells.

A further series can be described thus: in vivo. Further details: species or system cynomolgus monkeys. The following applies: female, cynomolgus monkey, po. The procedure:
Compound of formula (I) was orally given to 3 female cynomolgus monkeys by gavage once a day for 91 days. The volume of administration was 5 mL/kg, and the vehicle was an aqueous solution of 0.5% (w/v) methylcellulose (cps 400) and 1% (w/v) Tween 80. The Compound of formula (I) dose was 10 mg/kg; this dose level was assessed in this study to be the […] no adverse effect level (NOAEL) based on general toxicology evaluation. The animals were necropsied 24 hours after the last dose after an overnight period without food. A sample from brain tissue (left forebrain) was collected from each animal, snap frozen in liquid nitrogen. and stored frozen at <−50° C. Blood samples were taken from the femoral vein into tubes containing K2EDTA, fully inverted approximately 10 times, and placed on crushed wet ice until centrifugation at 2300 g for 10 minutes at approximately 4° C. The resultant plasma was separated, transferred into polypropylene tubes, and frozen at <−50° C. Tissue and plasma samples were transported frozen on dry ice to the respective sites of analysis.

The next series concerns LN18 GBM cell line. The series is described as follows: Colony formation with radiotherapy, LN18. It counts as cell-based. The following applies: 0.1 μM to 5.0 μM, irradiated at 1, 2 and 4 Gy, p<0.0001. On the procedure: (§1) GBM tumor cells (T98G, LN18, SNB-19 and U251) were grown as an adherent monolayer at 37° C. in a humidified atmosphere (5% CO2, 95% air). For experimental use, tumor cells were detached from culture flasks by a 5-minute treatment with trypsin-versene, in Hanks' medium without calcium or magnesium and neutralized by addition of complete culture medium. Cells were counted and viability assessed using a 0.25% trypan blue exclusion assay. All cell lines were appropriately seeded following the conditions for monolayer colony formation in 6-well plates (Ref #152795, Nunc, Dutscher) in 1.9 ml of cell culture medium, at 3 densities for evaluation of a proclonogenic effect. […]
(§2) Treatments were performed at 24 hours (D1) after seeding by addition of ×20 concentrated compound or vehicle solutions, to obtain final concentrations of 0.1 μM to 5.0 μM of Compound of formula (I) [referred to as CoF (I) in FIG. 3]. […] After 14 days of incubation, colonies were counted after being stained through incubation with 500 μl of a solution of water containing 0.05% (w/v) of methylene blue (Ref. M4159, Sigma) for 2 hours. Colonies were counted using a colony counter pen (Ref #045855, Dutscher, Brumath, France). The Surviving Fraction was calculated for each condition using the equations described below and plotted on a semi-logarithmic graph using the Linear-Quadratic model. […]

The next series deals with U251 GBM cell line. The series is described as follows: Colony formation with radiotherapy, U251. Type of series: cell-based. The following applies: 0.1 μM to 5.0 μM, irradiated at 1, 2 and 4 Gy, p=0.6. On the procedure:
as §1, §2

SMILES strings stand for the structures.

Regarding `Cc1cc(Nc2ncc3c(n2)N(C)CN(c2c(Cl)cccc2Cl)C3=O)ccc1C1CCN(C)CC1` [Compound of formula (I)], in the series on U87-MG-luc GBM cell line, the “Tumor size (relative BLI) vs vehicle controls at end of treatment” value was “significantly smaller tumors than vehicle controls”. Further, the “Surviving fraction of cells, colony formation assay” value in the series with SF188 cells is listed as “significantly reduced the surviving fraction of cells”. Moreover, in “in vivo”, the NOAEL at 91 days came out at 10 mg/kg. Further, the “Effect on radiotherapy (surviving fraction, colony formation)” value in the series on LN18 GBM cell line is “significantly increased effect of radiotherapy”; with U251 GBM cell line, “not significant”.

The NOAEL is the highest tested level that showed no adverse finding.
